The values below come from US8465945B2, “Method for production and use of mite group 1 proteins” (Merck Patent GmbH, priority 1999, dated 2013).

The target in assay [1] is T1, P. pastoris-expressed Der f 1 protein (Dermatophagoides farinae, UniProt P16311, D282V).
T1 construct: The Der f 1 protein secreted as a mature form by recombinant cell P. pastoris HCY215; S. cerevisiae alpha factor signal peptide (with KEX2 site and Glu-Ala spacer) (N, cleaved yes); made in house; host or cells: Pichia pastoris strain X33 transformed with pBC128 (recombinant cell HCY215)
The experiment in a line: Inhibition of rDer f 1 cysteine protease activity by E-64. The assay is classed as biochemical, D. farinae. The following applies: E-64 1 μg/ml. The method, then:
Native Der f 1 is believed to be a cysteine protease, based on homology to papain; see, for example, Chua et al, 1992, J Exp Med 167, 175-182. The Der f 1 protein secreted as a mature form by recombinant cell P. pastoris HCY215 (i.e., P. pastoris strain X33 transformed with plasmid pBC128 containing nucleic acid molecule nDerf1909b (coding strand of SEQ ID NO:28) which encodes the pro-form of Der f 1 (amino acid sequence SEQ ID NO:29)) was tested for cysteine protease activity in the following manner. Three concentrations of protein were tested for their abilities to cleave an artificial substrate in the presence or absence of a cysteine protease inhibitor. Specifically, three pairs of samples containing 0.56 μg, 1.1 μg, or 5.6 μg of P. pastoris-expressed Der f 1 protein, respectively, were incubated for 30 minutes at room temperature in 20 μl of 50 mM Tris-HCl, pH 8. One member of each pair also contained the irreversible cysteine protease inhibitor E-64 at a concentration of 1 μg/ml. After the pre-incubation, 100 μl of 50 μM quenched fluorogenic substrate z-Val-Leu-Arg-AMC (available from Enzyme Systems Products, Livermore, Calif.) was added to all six samples, and the samples were incubated for 2 hours at room temperature. Fluorescence was measured using a Perkin Elmer Luminescence Spectrometer (model #LS50B) at an excitation wavelength of 380nm and an emission wavelength of 460 nm.

Assay [2] deals with IgE. The following applies: cited from earlier work.

T1 sequence (P16311 99-321 D282V): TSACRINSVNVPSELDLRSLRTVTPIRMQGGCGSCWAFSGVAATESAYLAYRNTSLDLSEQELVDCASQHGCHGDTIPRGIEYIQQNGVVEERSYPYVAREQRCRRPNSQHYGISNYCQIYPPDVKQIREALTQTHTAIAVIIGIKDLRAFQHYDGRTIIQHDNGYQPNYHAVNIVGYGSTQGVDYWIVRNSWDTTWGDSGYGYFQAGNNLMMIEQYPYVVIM

For the molecule `CC(C)C[C@H](NC(=O)[C@H]1O[C@@H]1C(=O)O)C(=O)NCCCCN=C(N)N` [E-64], the “% Inhibition E-64” value in assay [1] (0.56 micrograms rDer f 1) amounted to 65%; in assay [1] (1.1 micrograms rDer f 1), 55%; in assay [1] (5.6 micrograms rDer f 1), 76%.

B1: S. cerevisiae-expressed Der p 1 proenzyme: Recombinant Der p 1 pro-form produced in S. cerevisiae, solubilized and renatured (Chua et al) (protein, UniProt P08176 19-320, looked up)
pro-form: RPSSIKTFEEYKKAFNKSYATFEDEEAARKNFLESVKYVQSNGGAINHLSDLSLDEFKNRFLMSAEAFEHLKTQFDLNAETNACSINGNAPAEIDLRQMRTVTPIRMQGGCGSCWAFSGVAATESAYLAYRNQSLDLAEQELVDCASQHGCHGDTIPRGIEYIQHNGVVQESYYRYVAREQSCRRPNAQRFGISNYCQIYPPNVNKIREALAQTHSAIAVIIGIKDLDAFRHYDGRTIIQRDNGYQPNYHAVNIVGYSNAQGVDYWIVRNSWDTNWGDNGYGYFAANIDLMMIEEYPYVVIL
modifications: pro-form S. cerevisiae-expressed
Regarding B1, the “sera reactive, of 11 sera reactive with the native protein” value in assay [2] (Chua et al) is listed as 9. Also, the “IgE reactivity relative to the native protein” value in assay [2] (literature reports (Chua et al 1992; Shoji et al 1996, 1997)) is on record as “about 80%”.
